Earlier results, collected in US6987129B2, “Compounds and methods for the treatment of urogenital disorders” (Cellegy Pharmaceuticals, Inc., priority 2001, dated 2006).

Assays:
[1] = tested on: women with FSAD; conditions: human, in vivo
[2] = in vivo

excretion [2]	metabolism by the liver [2]	Structure (SMILES)	efficacy in a larger clinical trial including other patients suffering from FSAD [1]	efficacy in women with spinal cord injury and in women using antidepressants such as serotonin reuptake inhibitors [1]
		CCCc1nn(C)c2c(=O)[nH]c(-c3cc(S(=O)(=O)N4CCN(C)CC4)ccc3OCC)nc12 [Sildenafil]	failed to show efficacy	demonstrated efficacy
excreted unchanged by the kidneys	not metabolized by the liver	Cn1c(=O)c2c(ncn2CC(O)CO)n(C)c1=O (stereo not shown) [dyphylline]		
